Data from patent publication US8530650B2, “2, 5-diamino-substituted pyrido [4, 3-D] pyrimidines as autotaxin inhibitors against cancer” (MERCK PATENT GmbH, priority 2008, dated 2013).

What follows are compounds tested against T1, recombinant autotaxin (Homo sapiens, UniProt Q13822) (assay: Autotaxin assay (Amplex Red, LPC substrate)). Conditions: 75 μM LPC, Amplex Red fluorescence, ten 1:3 dilutions starting at 30 μM.
T1 construct: made in house; host or cells: Hi5 insect cells (baculovirus)
Assay type: biochemical
Experimental: Autotaxin activity is measured indirectly by means of Amplex Red Reagent. In this course, Amplex Red is measured as fluorogenic indicator for generated H2O2. Autotaxin converts substrate lysophosphatidylcholine (LPC) to phosphocholine and lysophosphatidylic acid (LPA). After the conversion phosphocholine is reacted with alkaline phosphatase to obtain inorganic phosphate and choline. During the next step choline is oxidized with choline oxidase to yield betaine, whereby H2O2 is generated. H2O2 reacts with Amplex Red Reagent in the presence of peroxidase (Horseradish peroxidase) in an 1:1 stochiometry and yields highly fluorescent resorufin. The generated fluorescence is measured in a reaction-dependent kinetic mode in order to enable subtraction of fluorescence signals of possible other fluorescent compounds that are not part of the reaction from total measured fluorescence.
1.5 μl of a standard solution or of the compounds of the invention are dissolved in 20 mM Hepes pH 7.2 with maximally 7.7% DMSO in individual concentrations. The resulting solution is pre-incubated together with 10 μl (16 ng) of highly purified recombinant autotaxin in a black 384-hole microtiter plate for 30 min at 22° C. Thereafter, the reaction is started through the addition of 5 μL-a-lysophosphatidylcholine (LPC), whereby the final concentration of LPC is 75 μM. The mixture is incubated for 90 min. at 37° C. After the incubation Amplex Red Reagent, peroxidase (Horseradish peroxidase) and choline oxidase are added. The fluorescence is immediately measured at a wavelength of 612 nm with an excitation wavelength of 485 nm in a “Tecan Ultra multimode” fluorescence reader. The activity of autotaxin is indirectly calculated via the amount of detected generated H2O2.
For IC50 analysis, ten serial 1:3 dilutions starting at 30 μM for each compound were run in duplicates.
IC50 values were calculated on normalized data. For normalization, control wells were added to each assay plate and the signal of uninhibited control wells was set to 100%, whereas the signal inhibited by 500 μM C14 LPA, (Avanti Polar Lipids, Cat# 857120P) was set to 0%. Curves were fitted and IC50 values calculated by the following model using proprietary analysis software: Y=Bottom+(100−Bottom)/(1+10^((LogIC50−X)*HillSlope))
Where X is the logarithm of concentration. Y is the response; Y starts at Bottom and goes to Top with a sigmoid shape.
Protein: Recombinant autotaxin (baculoviral Hi5 expression)
Substrate: L-a-lysophosphatidyl choline (chicken egg); Avanti Polar Lipids #830071 P
Standard: C14 LPA, Avanti Polar Lipids, Cat# 857120P
Detection Reagent Amplex Red Reagent; Invitrogen #A12222; dissolved in 1.923 ml of DMSO peroxidase Type VI-A (horseradish), Sigma #P6782; dissolved in 7.45 ml of test buffer, Choline Oxidase; Sigma #C5896; dissolved in 2.47 ml test buffer
Detection Reagent Mix: 1:100 dilution of Amplex Red Regent in test buffer
Test buffer: 200 mM Tris-HCl, Merck, Cat # 1.08219, pH 7.9; 0.1% BSA, lipid free, Roche Cat#775835
`O=C(O)C1CCN(c2nccc3nc(NCc4ccccc4Cl)ncc23)CC1` [Compound 127, 1-[2-(2-Chloro-benzylamino)-pyrido[4,3-d]pyrimidin-5-yl]-piperidine-4-carboxylic acid] showed an IC50 of under 5 µM. In the case of `CC(C)OCCCNc1nccc2nc(NCc3ccccc3Cl)ncc12` [Compound 15, N2-(2-Chloro-benzyl)-N5-(3-isopropoxy-propyl)-pyrido[4,3-d]pyrimidine-2,5-diamine], the IC50 is reported as under 30 µM. With `NC(=O)C1CCN(c2nccc3nc(NCc4ccccc4Cl)ncc23)CC1` [Compound 107, 1-[2-(2-Chloro-benzylamino)-pyrido[4,3-d]pyrimidin-5-yl]-piperidine-4-carboxylic acid amide] the IC50 was under 5 µM. With `O=C(Cc1ccccn1)N1CCN(c2nccc3nc(NCc4ccccc4Cl)ncc23)CC1` [Compound 119, 1-{4-[2-(2-Chloro-benzylamino)-pyrido[4,3-d]pyrimidin-5-yl]-piperazin-1-yl}-2-pyridin-2-yl-ethanone] the IC50 was under 5 µM. `CCOCCCNC(=O)C1CCN(c2nccc3nc(NCc4ccccc4OC)ncc23)CC1` [Compound 102, 1-[2-(2-Methoxy-benzylamino)-pyrido[4,3-d]pyrimidin-5-yl]-piperidine-4-carboxylic acid (3-ethoxy-propyl)-amide] was tested, and the IC50 was under 30 µM. Compound `CCCNC(=O)C1CCCN(c2nccc3nc(NCc4ccccc4Cl)ncc23)C1` (stereo not drawn) [Compound 85, 1-[2-(2-Chloro-benzylamino)-pyrido[4,3-d]pyrimidin-5-yl]-piperidine-3-carboxylic acid propylamide] has an IC50 of under 30 µM. Compound `COc1ccccc1CNc1ncc2c(Nc3ccc(F)cc3)nccc2n1` [Compound 33, N5-(4-Fluoro-phenyl)-N2-(2-methoxy-benzyl)-pyrido[4,3-d]pyrimidine-2,5-diamine] has an IC50 of under 30 µM. For `COc1ccccc1CNc1ncc2c(N3CCC(C(=O)Nc4cc(C)on4)CC3)nccc2n1` [Compound 77, 1-[2-(2-Methoxy-benzylamino)-pyrido[4,3-d]pyrimidin-5-yl]-piperidine-4-carboxylic acid (5-methyl-isoxazol-3-yl)-amide], the IC50 was under 30 µM. `CCN(CC)C(=O)C1CCCN(c2nccc3nc(NCc4ccccc4Cl)ncc23)C1` (stereo not drawn) [Compound 91, 1-[2-(2-Chloro-benzylamino)-pyrido[4,3-d]pyrimidin-5-yl]-piperidine-3-carboxylic acid diethylamide] gave an IC50 of under 30 µM. For `COc1ccc(CNc2ncc3c(Nc4ccc(C#N)cc4)nccc3n2)cc1` [Compound 57, 4-[2-(4-Methoxy-benzylamino)-pyrido[4,3-d]pyrimidin-5-ylamino]-benzonitrile], the IC50 was under 30 µM. For `O=C(CCc1c[nH]cn1)N1CCN(c2nccc3nc(NCc4ccccc4Cl)ncc23)CC1` [Compound 122, 1-{4-[2-(2-Chloro-benzylamino)-pyrido[4,3-d]pyrimidin-5-yl]-piperazin-1-yl}-3-(1H-imidazol-4-yl)-propan-1-one], the IC50 was under 5 µM. `O=C(NC1CC1)C1CCN(c2nccc3nc(NCc4ccccc4Cl)ncc23)CC1` [Compound 69, 1-[2-(2-Chloro-benzylamino)-pyrido[4,3-d]pyrimidin-5-yl]-piperidine-4-carboxylic acid cyclopropylamide] showed an IC50 of under 10 µM. `Fc1ccc(N2CCN(c3nccc4nc(NCc5ccccc5Cl)ncc34)CC2)cc1` [Compound 106, (2-Chloro-benzyl)-{5-[4-(4-fluoro-phenyl)-piperazin-1-yl]-pyrido[4,3-d]pyrimidin-2-yl}-amine] was tested, and the IC50 was under 5 µM. `CC(=O)OCC(=O)N1CCN(c2nccc3nc(NCc4ccccc4Cl)ncc23)CC1` [Compound 126, Acetic acid 2-{4-[2-(2-chloro-benzylamino)-pyrido[4,3-d]pyrimidin-5-yl]-piperazin-1-yl}-2-oxo-ethyl ester] showed an IC50 of under 5 µM. `Clc1ccc(CNc2ncc3c(Nc4ccc5c(c4)OCO5)nccc3n2)cc1` [Compound 46, N5-Benzo[1,3]dioxol-5-yl-N2-(4-chloro-benzyl)-pyrido[4,3-d]pyrimidine-2,5-diamine] was tested, and the IC50 was under 30 µM. `Cc1cc(F)ccc1Nc1nccc2nc(NCc3ccc(F)cc3)ncc12` [Compound 28, N2-(4-Fluoro-benzyl)-N5-(4-fluoro-2-methyl-phenyl)-pyrido[4,3-d]pyrimidine-2,5-diamine] was tested, and the IC50 was under 30 µM. With `O=C(NCc1cccnc1)C1CCN(c2nccc3nc(NCc4ccccc4Cl)ncc23)CC1` [Compound 62, 1-[2-(2-Chloro-benzylamino)-pyrido[4,3-d]pyrimidin-5-yl]-piperidine-4-carboxylic acid (pyridin-3-ylmethyl)-amide] the IC50 was under 5 µM. Work on `O=C(NCc1ccc(F)cc1Cl)C1CCN(c2nccc3nc(NCc4ccccc4Cl)ncc23)CC1` [Compound 144, 1-[2-(2-Chloro-benzylamino)-pyrido[4,3-d]pyrimidin-5-yl]-piperidine-4-carboxylic acid 2-chloro-4-fluoro-benzylamide] yielded an IC50 of under 30 µM. For `COCCNC(=O)C1CCN(c2nccc3nc(NCc4ccccc4OC)ncc23)CC1` [Compound 75, 1-[2-(2-Methoxy-benzylamino)-pyrido[4,3-d]pyrimidin-5-yl]-piperidine-4-carboxylic acid (2-methoxy-ethyl)-amide], the IC50 was under 30 µM. `COc1ccc(Nc2nccc3nc(NCc4ccccc4Cl)ncc23)cc1OC` [Compound 12, N2-(2-Chloro-benzyl)-N5-(3,4-dimethoxy-phenyl)-pyrido[4,3-d]pyrimidine-2,5-diamine] was tested, and the IC50 was under 30 µM. Compound `Clc1ccccc1CNc1ncc2c(N3CCN(c4nccs4)CC3)nccc2n1` [Compound 109, (2-Chloro-benzyl)-[5-(4-thiazol-2-yl-piperazin-1-yl)-pyrido[4,3-d]pyrimidin-2-yl]amine] has an IC50 of under 10 µM. `CCN(CC)C(=O)C1CCN(c2nccc3nc(NCc4ccccc4OC)ncc23)CC1` [Compound 103, 1-[2-(2-Methoxy-benzylamino)-pyrido[4,3-d]pyrimidin-5-yl]-piperidine-4-carboxylic acid diethylamide] was tested, and the IC50 was under 10 µM. Work on `COc1ccccc1CNc1ncc2c(Nc3ccc4c(c3)OCCO4)nccc2n1` [Compound 39, N5-(2,3-Dihydro-benzo[1,4]dioxin-6-yl)-N2-(2-methoxy-benzyl)-pyrido[4,3-d]pyrimidine-2,5-diamine] yielded an IC50 of under 30 µM. `O=C(C1CCCN(c2nccc3nc(NCc4ccc(Cl)cc4)ncc23)C1)N1CCN(c2ccccn2)CC1` (stereo not drawn) [Compound 94, {1-[2-(4-Chloro-benzylamino)-pyrido[4,3-d]pyrimidin-5-yl]-piperidin-3-yl}-(4-pyridin-2-yl-piperazin-1-yl)-methanone] was tested, and the IC50 was under 10 µM. In the case of `O=C(Cc1ccncc1)N1CCN(c2nccc3nc(NCc4ccccc4Cl)ncc23)CC1` [Compound 138, 1-{4-[2-(2-Chloro-benzylamino)-pyrido[4,3-d]pyrimidin-5-yl]-piperazin-1-yl}-2-pyridin-4-yl-ethanone], the IC50 is reported as under 30 µM. For `Cc1ccccc1Nc1nccc2nc(NCc3ccc(Cl)cc3)ncc12` [Compound 43, N2-(4-Chloro-benzyl)-N5-o-tolyl-pyrido[4,3-d]pyrimidine-2,5-diamine], the IC50 was under 30 µM. Compound `O=C(OCc1cccnc1)N1CCN(c2nccc3nc(NCc4ccccc4Cl)ncc23)CC1` [Compound 151, 4-[2-(2-Chloro-benzylamino)-pyrido[4,3-d]pyrimidin-5-yl]-piperazine-1-carboxylic acid pyridin-3-ylmethyl ester] has an IC50 of under 30 µM.
